Data as given in PubChem BioAssay AID1944 (The Scripps Research Institute Molecular Screening Center, 2009).
Activity calls are given as the source filed them. No rule for the calls is given here.

The molecules below were run against Replicase polyprotein 1ab (Severe acute respiratory syndrome coronavirus) (UniProt P0C6X7) (assay: SARS-CoV PLpro inhibitor potency, dose response, counter-screen for SARS-CoV 3CLpro inhibitor project, biochemical, luminescence (AID 1944)). Conditions: SARS-CoV PLpro enzymatic assay.

**Q.** Which IC50 does the source give for COc1cccc(C(C(=O)NCc2ccco2)N(Cc2ccco2)C(=O)Cn2nnc3ccccc32)c1 (stereo not drawn) here?
**A.** > 59.6 µM (inactive)

**Q.** With CC(C)C[C@H](NC(=O)c1nc[nH]c1C(=O)NCc1ccc(CNC(=O)OC(C)(C)C)cc1)C(=O)OC(C)(C)C as the molecule, how does the IC50 read?
**A.** > 59.6 µM (inactive)

**Q.** With CCc1cc(=O)oc2cc(OC(=O)c3ccco3)ccc12 as the molecule, how does the IC50 read?
**A.** > 59.6 µM (inactive)
